Like-named read-outs stand apart in the source and are kept apart here.
Experiments:
[1] = Log P by HPLC on reversed phase columns (EEC directive 79/831 Annex V.A8); assay type: physicochemical; details: LC-UV
Method: Measurement of Log P values was performed according to EEC directive 79/831 Annex V.A8 by HPLC (High Performance Liquid Chromatography) on reversed phase columns with the following methods: • ^[a] Log P value is determined by measurement of LC-UV, in an acidic range, with 0.1% formic acid in water and acetonitrile as eluent (linear gradient from 10% acetonitrile to 95% acetonitrile). • ^[b] Log P value is determined by measurement of LC-UV, in a neutral range, with 0.001 molar ammonium acetate solution in water and acetonitrile as eluent (linear gradient from 10% acetonitrile to 95% acetonitrile). […] Lambda-max-values were determined using UV-spectra from 200 nm to 400 nm and the peak values of the chromatographic signals.

[2] = Hydrolysis stability test in homogeneous aqueous solution; assay type: physicochemical
Excerpt: Stability Towards Hydrolysis in Homogeneous Aqueous Solution—Hydrolysis Stability Test The chemical stability towards hydrolysis of the phenylamidines described in the prior art is good but an improved stability may be an advantage during the preparation and formulation processes in a large scale. The improved stability towards hydrolysis was proven by a hydrolysis stability test as described below: To produce a suitable preparation of active compound for the hydrolysis stability test, a 1000 ppm stock solution (1 mg/mL) of active compound in acetonitrile is prepared. Three aliquots of 100 μL are pipetted into HPLC vials and diluted with 750 μL acetonitrile. In each vial 850 μL of the appropriate buffer solution (pH4, pH7 and pH9, CertiPUR, Fa. Merck) is added. The buffer containing HPLC vials are incubated in a heated sample tray at 50° C. for 24 hours. The amount A of the active compound is analyzed by HPLC (UV-peak areas at 210 nm) at eight points in time t: 0 min, 140 min, 350 min, 560 min, 770 min, 980 min, 1190 min, 1400 min. The half-life time (T1/2) of each active compound is calculated via linear regression by using the following equations (first order degradation assumed): [formula] [formula] In table III the results of the hydrolysis stability test are shown for the compounds (I-01), (I-02), (I-03) and (I-04) at various pH-values. […] 337 known from WO2008/110278. […] This increased stability will be of advantage during the preparation and formulation processes in a large scale compared to known amidines. The data are to be seen merely by way of example and are not limiting for the purposes of the invention.

[3] = Photolysis stability test; assay type: physicochemical
Excerpt: Stability Towards Photolysis—Photolysis Stability Test
The stability towards photolysis of the phenylamidines described in the prior art is good but an improved stability towards photolysis may be an advantage as it could offer a longer lasting efficacy when applied to plants by foliar application. The improved stability towards photolysis was proven by a […] as described below: To produce a suitable preparation of active compound for the photolysis stability test, a 1000 ppm stock solution (1 mg/mL) of active compound in acetonitrile is prepared. Aliquots of 25 μL of this stock solution are pipetted in three wells of a Bio-one microtiter plate (MTP) UVStar 96 (Fa. Greiner, Art. No. 655801). The MTP is dried overnight in the dark and then irradiated at 30° C. and 480 W/m^2 with a UV irradiation device SUNTEST XLS+ or SUNTEST CPS (Fa. Atlas). The amount A of the active compound is analyzed by HPLC (UV-peak areas at 210 nm) at five points in time t: 0 h, 2 h, 4 h, 6 h, 24 h by using the following method: 200 μL acetonitrile is added in the respective well of the MTP and the MTP is sealed with a Bio-one sealing foil, viewseal 80/140 mm (Fa. Greiner, Art. No. 676070). The MTPs are sonicated for 3 minutes and analysed by HPLC. The half-life time (T) of each active compound is calculated via linear regression by using the following equations (first order degradation assumed): […]
In table IV the results of the photolysis stability test are shown for the compounds (I-01), (I-02), (I-03) and (I-04). […] This increased chemical stability towards photolysis will be of advantage as it will offer a longer lasting efficacy when applied to plants by foliar application compared to known amidines. The data are to be seen merely by way of example and are not limiting for the purposes of the invention.

[4] = system: soy bean plants; assay: Plant compatibility test using soy bean plants; assay type: in vivo; details: soy bean plants sprayed, 1000 ppm active compound, evaluated 6 days after application; 0% no damages, 100% totally damaged
Method: Plant Compatibility Test Using Soy Bean Plants • Solvent: 24.5 parts by weight of acetone • 24.5 parts by weight of dimethylacetamide • Emulsifier: 1 part by weight of alkylaryl polyglycol ether To produce a suitable preparation of active compound, 1 part by weight of active compound is mixed with the stated amounts of solvent and emulsifier, and the concentrate is diluted with water to the desired concentration. Young plants are sprayed with the preparation of active compound at the stated application rate. The plants are then placed in a greenhouse at approximately 21° C. and a relative atmospheric humidity of approximately 80%. The test is evaluated 6 days after application and comprises plant damages like leaf deformation, chlorosis, necrosis, shoot damage or stunting. The results are summarized in table V. 0% means no damages are observed, while 100% means that the plants are totally damaged.

[5] = system: Phakopsora pachyrhizi; assay: In vivo preventive test on Phakopsora (soybeans); details: 100 ppm of active ingredient, preventive spray on soybeans, evaluated 7 days after inoculation
Method: Example: In Vivo Preventive Test on Phakopsora Test (Soybeans)
• Solvent: 24.5 parts by weight of acetone • 24.5 parts by weight of dimethylacetamide • Emulsifier: 1 part by weight of alkylaryl polyglycol ether
To produce a suitable preparation of active compound, 1 part by weight of active compound is mixed with the stated amounts of solvent and emulsifier, and the concentrate is diluted with water to the desired concentration.
To test for preventive activity, young plants are sprayed with the preparation of active compound at the stated rate of application. After the spray coating has dried on, the plants are inoculated with an aqueous spore suspension of the causal agent of soybean rust (Phakopsora pachyrhizi) and stay for 24 h without light in an incubation cabinet at approximately 24° C. and a relative atmospheric humidity of 95%.
The plants remain in the incubation cabinet at approximately 24° C. and a relative atmospheric humidity of approximately 80% and a day/night interval of 12 h.
The test is evaluated 7 days after the inoculation. 0% means an efficacy which corresponds to that of the untreated control, while an efficacy of 100% means that no disease is observed.

[6] = acidic range, 0.1% formic acid in water and acetonitrile as eluent, read-out: LogP [a]
[7] = neutral range, 0.001 molar ammonium acetate solution in water and acetonitrile as eluent, read-out: LogP [b]
[8] = pH 7, read-out: T1/2 (pH 7) (converted)
[9] = pH 9, read-out: T1/2 (pH 9) (converted)

CCN(C)C=Nc1cc(C)c(Oc2ccccc2I)cc1Cl [Example I-06, N′-[2-chloro-4-(2-iodophenoxy)-5-methylphenyl]-N-ethyl-N-methylimidoformamide] showed a chromatographic logP [1, 6] of 1.78.
CCN(C)C=Nc1cc(C)c(Oc2ccccc2F)cc1Br [Example I-03, N′-[2-bromo-4-(2-fluorophenoxy)-5-methylphenyl]-N-ethyl-N-methylimidoformamide] gave a chromatographic logP [1, 6] of 1.66, a chromatographic logP [1, 7] of 4.53 and a half-life at 58.8 µg/mL [2, 8] of 68 h. It also gave a half-life at 58.8 µg/mL [2, 9] of 51 h and a half-life at 25 µg/well [3] of 178 h.
In the case of CCN(C)/C=N/c1cc(C)c(Oc2ccccc2)cc1C [Compound no. 1], the Necrosis in % [4] is reported as 90%.
CCN(C)C=Nc1cc(C)c(Oc2ccccc2Cl)cc1Br [Example I-04, N′-[2-bromo-4-(2-chlorophenoxy)-5-methylphenyl]-N-ethyl-N-methylimidoformamide] showed a chromatographic logP [1, 6] of 1.84, a chromatographic logP [1, 7] of 4.97 and a half-life at 58.8 µg/mL [2, 8] of 64 h. The half-life at 58.8 µg/mL [2, 9] was 58 h and the half-life at 25 µg/well [3] was > 200 h.
CCN(C)C=Nc1cc(C)c(Oc2ccccc2F)cc1C(F)F [Example I-02, N′-[2-(difluoromethyl)-4-(2-fluorophenoxy)-5-methylphenyl]-N-ethyl-N-methylimidoformamide] gave a chromatographic logP [1, 6] of 1.76, a half-life at 58.8 µg/mL [2, 8] of 160 h and a half-life at 58.8 µg/mL [2, 9] of 140 h. For the same compound, the half-life at 25 µg/well [3] was 185 h.
CCN(C)C=Nc1cc(C)c(Oc2ccccc2Cl)cc1Cl [Example I-05, N′-[2-chloro-4-(2-chlorophenoxy)-5-methylphenyl]-N-ethyl-N-methylimidoformamide] showed a chromatographic logP [1, 6] of 1.58, a half-life at 58.8 µg/mL [2, 8] of 51 h and a half-life at 58.8 µg/mL [2, 9] of 47 h.
Work on CCN(C)C=Nc1cc(C)c(Oc2ccccc2Br)cc1Br [Example I-07, N′-[2-bromo-4-(2-bromophenoxy)-5-methylphenyl]-N-ethyl-N-methylimidoformamide] yielded a chromatographic logP [1, 6] of 1.81, a half-life at 58.8 µg/mL [2, 8] of 63 h and a half-life at 58.8 µg/mL [2, 9] of 57 h.
Work on Cc1cc([N+](=O)[O-])c(C(F)F)cc1Oc1ccccc1F [VI-02, 1-(Difluoromethyl)-5-(2-fluorophenoxy)-4-methyl-2-nitrobenzene] yielded a chromatographic logP [1, 6] of 3.97.
Cc1cc([N+](=O)[O-])c(Br)cc1Oc1ccccc1Cl [VI-04, 4-Bromo-2-(2-chlorophenoxy)-1-methyl-5-nitrobenzene] showed a chromatographic logP [1, 6] of 4.68.
Work on CCN(C)/C=N/c1cc(C)c(Oc2ccccc2F)cc1Cl [Example I-01, N′-[2-chloro-4-(2-fluorophenoxy)-5-methylphenyl]-N-ethyl-N-methylimidoformamide] yielded a chromatographic logP [1, 6] of 1.66, a half-life at 58.8 µg/mL [2, 8] of 52 h and a half-life at 58.8 µg/mL [2, 9] of 47 h. For the same compound, the half-life at 25 µg/well [3] was > 200 h, the Necrosis in % [4] was 20% and the efficacy [5] was “at least 70%”.
For Cc1cc(N)c(Br)cc1Oc1ccccc1Cl [VIII-04, 2-Bromo-4-(2-chlorophenoxy)-5-methylaniline], the chromatographic logP [1, 7] was 3.53.
With CCN(C)/C=N/c1cc(C)c(Oc2ccccc2F)cc1C [Compound no.337] the Necrosis in % [4] was 90%.

Reference: patent US10506807B2, “Halogen-substituted phenoxyphenylamidines and the use thereof as fungicides” (priority 2015, dated 2019)
